The IC50 is the point on the concentration scale where inhibition reaches its midpoint. Broadly, the Kd is the free concentration of one partner at which half of the binding sites on the other are occupied at equilibrium, for simple one-to-one binding.

Structures are written as SMILES. Where “and” joins values, the source holds several entries; their conditions need not be identical. Identical values can stand only once. Entries after “also recorded” stand apart in the source; their conditions may differ. Some results are limits rather than exact numbers.

This note sets out measurements from article PMC4306137, “The First Small-Molecule Inhibitors of Members of the Ribonuclease E Family” (Scientific Reports, 2015).

Assay [1] deals with T1, E. coli NTH-RNase E (Escherichia coli, UniProt P21513). Briefly: SPR binding to immobilized E. coli NTH-RNase E. The note with it: for SPR binding curve behaviour (specific or non-specific binding): E. coli NTH-RNase E, plateau at higher concentrations = specific; for Steady State KD value: apparent KD from SPR steady state fit, binding to E. coli RNase E, PBS with 5% DMSO; for Kd: read-out: Steady State KD value. Here is the method: (§1) E. coli and M. tuberculosis RNase E were immobilized covalently using amine coupling to the surface of a Biacore CM5 sensor chip (GE Healthcare). Immobilization levels were approximately 1500 RUs. Assessment of compound binding were conducted by injecting varying compound concentrations in PBS containing 5% DMSO at flow rates of 30–90 μl/min for ~60 s over the reference and test flow cells. A Biacore T100 instrument was used and the data collected was reference and buffer subtracted prior to steady state analysis using data fitting functions provided in the Biacore T100 Evaluation Software.
T1 sequence (P21513 1-529): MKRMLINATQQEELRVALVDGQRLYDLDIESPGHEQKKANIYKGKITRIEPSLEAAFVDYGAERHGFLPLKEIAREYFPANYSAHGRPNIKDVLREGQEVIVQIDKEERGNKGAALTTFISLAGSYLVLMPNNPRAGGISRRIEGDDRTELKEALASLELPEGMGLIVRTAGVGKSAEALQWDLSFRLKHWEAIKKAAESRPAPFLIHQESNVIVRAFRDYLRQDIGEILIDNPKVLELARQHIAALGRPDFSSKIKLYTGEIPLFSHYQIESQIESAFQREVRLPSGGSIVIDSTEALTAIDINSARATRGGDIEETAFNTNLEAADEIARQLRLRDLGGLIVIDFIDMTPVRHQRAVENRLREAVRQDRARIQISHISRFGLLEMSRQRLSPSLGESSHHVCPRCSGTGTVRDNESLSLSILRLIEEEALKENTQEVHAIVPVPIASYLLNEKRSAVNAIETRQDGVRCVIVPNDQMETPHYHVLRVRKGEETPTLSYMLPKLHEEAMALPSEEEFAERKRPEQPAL
(In general: SPR reads the build-up and loss of mass on a sensor chip optically.)

Another assay addresses T2, E. coli RNase G (Escherichia coli, UniProt P0A9J0).
T2 construct: made in house
Briefly: Discontinuous cleavage assay, E. coli RNase G. In kind it is biochemical. The conditions noted are these: for IC50: E. coli enzyme, conditions as for RNase E, NI = no inhibition (up to 40 mM tested), read-out: Nominal IC50 RNase G; for Inhibition of the activity of RNase G (in words): E. coli RNase G. On the procedure: The compounds were obtained from Maybridge and re-suspended in 100% DMSO. Discontinuous cleavage assays were done using a 3′ fluorescein-labelled, 5′-monophosphorylated version of BR13, a well-characterised substrate of RNase E, with the sequence 5′-[…]↓AUUUG[44]. E. coli NTH-RNase E was pre-incubated with and without the compounds at 37°C for 20 min before the addition of substrate in a buffer containing 25 mM Bis-Tris Propane (pH 8.3), 100 mM NaCl, 15 mM MgCl2, 0.1% Triton X-100, 1 mM DTT and 20% DMSO. The enzyme monomer and substrate concentrations at the start of the reaction were 0.5 and 62 nM, respectively. The inhibition assays with RNase G and RNase A (Sigma) were carried out as above. Reaction products were analysed by electrophoresis using a denaturing 15% polyacrylamide, sequencing-type gel. Detection was via a FLA-5100 scanner (Fuji). Substrate and product were quantified using AIDA software (Raytest Isotopenmessgerate GmbH). Initial rates of reaction at increasing compound concentrations were obtained by establishing the slope representing percentage product generated over time during the initial, linear phase of the reaction. IC50 values were calculated by plotting the percentage inhibition of initial rate against compound concentration.

Assay [2] addresses T1, E. coli NTH-RNase E. Briefly: Discontinuous cleavage assay (pBR13-fl substrate), E. coli NTH-RNase E. In kind it is biochemical. The note with it: for IC50: E. coli enzyme, pre-incubation 37°C 20 min, 20% DMSO, NI = no inhibition (up to 40 mM tested), read-out: Nominal IC50 RNase E; for Inhibition of catalysis by E. coli RNase E (in words): discontinuous cleavage assay, conditions used.
Procedure: The compounds were obtained from Maybridge and re-suspended in 100% DMSO. […] E. coli NTH-RNase E was pre-incubated with and without the compounds at 37°C for 20 min before the addition of substrate in a buffer containing 25 mM Bis-Tris Propane (pH 8.3), 100 mM NaCl, 15 mM MgCl2, 0.1% Triton X-100, 1 mM DTT and 20% DMSO. The enzyme monomer and substrate concentrations at the start of the reaction were 0.5 and 62 nM, respectively. […] Reaction products were analysed by electrophoresis using a denaturing 15% polyacrylamide, sequencing-type gel. Detection was via a FLA-5100 scanner (Fuji). Substrate and product were quantified using AIDA software (Raytest Isotopenmessgerate GmbH). Initial rates of reaction at increasing compound concentrations were obtained by establishing the slope representing percentage product generated over time during the initial, linear phase of the reaction. IC50 values were calculated by plotting the percentage inhibition of initial rate against compound concentration.

Assay [3] concerns the target T3, M. tuberculosis RNase E (Mycobacterium tuberculosis, UniProt P71905). Briefly: Cleavage of pBR13-fl by M. tuberculosis RNase E. In kind it is biochemical. The note with it: 5 mM compound; room temperature; 5% DMSO. Here is the method: For M. tuberculosis RNase E (a kind gift from Prof. B. Luisi, University of Cambridge), 1 μM 3′ fluorescently-labelled, 5′ monophosphorylated BR13 was incubated with 50 nM RNase E with and without the compounds in buffer containing 25 mM Tris-HCl (pH 7.5), 100 mM NaCl, 15 mM MgCl2, 1 mM DTT and 5% DMSO at room temperature. Reactions were analysed by electrophoresis using denaturing 20% polyacrylamide gels and visualised using a UV transilluminator.

The target in assay [4] is T3, M. tuberculosis RNase E. Briefly: SPR binding to immobilized M. tuberculosis RNase E. The note with it: data not shown. On the procedure: as §1
[5] abbreviates: compounds at their E. coli RNase E IC50 concentration: 1.9 mM P10, 1.8 mM P11, 3.8 mM M5, combinations at the same concentrations, read-out: Initial rate normalised to 1 for the reaction containing no compound.

T2 sequence (P0A9J0 whole entry): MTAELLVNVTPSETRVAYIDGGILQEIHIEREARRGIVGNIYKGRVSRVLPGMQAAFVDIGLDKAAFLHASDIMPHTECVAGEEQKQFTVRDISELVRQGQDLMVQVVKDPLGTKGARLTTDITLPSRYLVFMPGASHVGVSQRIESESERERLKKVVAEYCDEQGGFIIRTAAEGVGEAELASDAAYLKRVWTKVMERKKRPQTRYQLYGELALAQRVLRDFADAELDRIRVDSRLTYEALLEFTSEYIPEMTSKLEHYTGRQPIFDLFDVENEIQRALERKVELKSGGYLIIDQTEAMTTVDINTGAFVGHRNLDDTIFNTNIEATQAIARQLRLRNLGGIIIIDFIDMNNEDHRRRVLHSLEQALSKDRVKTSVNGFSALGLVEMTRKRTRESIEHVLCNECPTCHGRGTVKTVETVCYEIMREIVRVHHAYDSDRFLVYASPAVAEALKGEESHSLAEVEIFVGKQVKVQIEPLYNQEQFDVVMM
T3 sequence (P71905 whole entry): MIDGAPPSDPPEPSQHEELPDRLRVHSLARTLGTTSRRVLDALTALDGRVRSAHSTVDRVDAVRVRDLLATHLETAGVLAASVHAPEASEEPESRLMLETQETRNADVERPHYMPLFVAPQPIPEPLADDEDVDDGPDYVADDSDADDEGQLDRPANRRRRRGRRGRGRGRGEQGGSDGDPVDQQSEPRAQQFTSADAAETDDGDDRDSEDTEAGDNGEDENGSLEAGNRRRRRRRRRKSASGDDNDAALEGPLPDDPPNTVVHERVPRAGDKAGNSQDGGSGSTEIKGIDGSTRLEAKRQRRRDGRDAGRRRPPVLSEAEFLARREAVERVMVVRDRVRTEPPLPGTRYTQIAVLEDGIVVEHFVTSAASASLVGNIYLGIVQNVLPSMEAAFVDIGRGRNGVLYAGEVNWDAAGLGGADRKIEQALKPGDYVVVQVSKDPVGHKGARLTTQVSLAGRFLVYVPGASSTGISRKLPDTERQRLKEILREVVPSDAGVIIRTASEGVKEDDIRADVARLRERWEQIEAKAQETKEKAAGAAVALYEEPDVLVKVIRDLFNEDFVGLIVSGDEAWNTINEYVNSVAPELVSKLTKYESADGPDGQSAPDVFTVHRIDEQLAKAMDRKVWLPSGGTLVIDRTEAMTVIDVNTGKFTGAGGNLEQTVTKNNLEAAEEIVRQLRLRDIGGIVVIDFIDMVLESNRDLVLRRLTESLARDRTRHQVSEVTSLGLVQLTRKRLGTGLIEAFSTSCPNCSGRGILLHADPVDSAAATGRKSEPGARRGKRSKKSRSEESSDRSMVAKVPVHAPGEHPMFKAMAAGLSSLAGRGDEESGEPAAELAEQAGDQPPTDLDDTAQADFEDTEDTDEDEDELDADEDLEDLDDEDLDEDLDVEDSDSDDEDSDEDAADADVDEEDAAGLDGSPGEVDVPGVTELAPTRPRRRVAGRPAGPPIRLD

`O=C1c2ccccc2NC(c2cc(Cl)cc(Cl)c2O)N1Cc1cccnc1` (centres unmarked) [M2]: at E. coli NTH-RNase E [1], the “SPR binding curve behaviour (specific or non-specific binding)” value is reported as “bind but at sites other than the intended target” and the “Steady State KD value” is “non-specific”. Further, the IC50 at E. coli RNase G was more than 40 mM. In addition, on E. coli NTH-RNase E [2], the IC50 is more than 40 mM and the “Inhibition of catalysis by E. coli RNase E (in words)” value (shortened to “Inhibition of catalysis”) is reported as “did not inhibit RNase E”.

As for `Cc1onc(-c2c(Cl)cccc2Cl)c1C(=O)N=S(C)(C)=O` [M3], the “SPR binding curve behaviour (specific or non-specific binding)” value at E. coli NTH-RNase E [1] is given as “consistent with targeting of specific sites”. Besides, the Kd on E. coli NTH-RNase E [1] was approximately 0.6 mM. Moreover, the IC50 at E. coli RNase G and at E. coli NTH-RNase E [2] was more than 40 mM throughout.

As for `CCOC(=O)NC(=O)c1cn(Nc2ncc(Cl)cc2C(F)(F)F)c(=O)[nH]c1=O` [M5], on E. coli NTH-RNase E [1], the “SPR binding curve behaviour (specific or non-specific binding)” value is “consistent with targeting of specific sites; also recorded: specific binding” and the Kd was approximately 3 mM. On E. coli RNase G, the “Inhibition of the activity of RNase G (in words)” value is listed as “able to inhibit the activity of RNase G”; the IC50 was 3.3 mM and ~3.3 mM. In addition, at E. coli NTH-RNase E [2], the IC50 is 3.8 mM and ~3.8 mM; the “Inhibition of catalysis” value was “clearly inhibited catalysis”. The activity at 3800 µM on E. coli NTH-RNase E [2] (setting [5]) was 42%. Moreover, at M. tuberculosis RNase E [3], the “Inhibition of M. tuberculosis RNase E (in words)” value is on record as “inhibits activity but appears to be less efficient”. On M. tuberculosis RNase E [4], the “SPR binding curves, M. tuberculosis RNase E (in words)” value was “consistent with specific targeting”.

For `Cc1c(C(=O)NNc2cc(C(F)(F)F)ccc2Cl)n(C)oc1=O` [M8], at E. coli NTH-RNase E [1], the “SPR binding curve behaviour (specific or non-specific binding)” value was “consistent with targeting of specific sites” and the Kd is approximately 3.5 mM. On E. coli NTH-RNase E [2], the IC50 is approximately 3.2 mM and the “Inhibition of catalysis” value is on record as “clearly inhibited catalysis”.

In the case of `Cc1nnsc1-c1onc(C)c1C(=O)O/N=C/c1cccc(Cl)c1` [M9], on E. coli NTH-RNase E [1], the “SPR binding curve behaviour (specific or non-specific binding)” value is recorded as “consistent with targeting of specific sites” and the dissociation constant (Kd) is approximately 2 mM. On E. coli RNase G, the “Inhibition of the activity of RNase G (in words)” value is “able to inhibit the activity of RNase G” and the IC50 was approximately 24 mM. Also, on E. coli NTH-RNase E [2], the IC50 is approximately 18 mM and the “Inhibition of catalysis” value is given as “inhibited catalysis but much less efficiently”.

Consider `Cc1ccc(C)n1-c1nn(S(=O)(=O)c2cccc3nonc23)c2cccc(F)c12` [P6], for which the “SPR binding curve behaviour (specific or non-specific binding)” value on E. coli NTH-RNase E [1] is given as “consistent with targeting of specific sites”. Moreover, the “Inhibition of the activity of RNase G (in words)” value on E. coli RNase G was “able to inhibit the activity of RNase G”. In addition, the “Inhibition of catalysis” value at E. coli NTH-RNase E [2] was “clearly inhibited catalysis”.

Regarding `Cc1ccc(S(=O)(=O)NC(=O)N2CCCN(c3ncnc4scc(-c5ccccc5)c34)CC2)cc1` [P10], on E. coli NTH-RNase E [1], the “SPR binding curve behaviour (specific or non-specific binding)” value was “bind at sites other than the intended target; also recorded: non-specific binding” and the “Steady State KD value” was “non-specific”. Besides, at E. coli RNase G, the “Inhibition of the activity of RNase G (in words)” value was “able to inhibit the activity of RNase G”; the IC50 is 2.4 mM and ~2.4 mM. Besides, on E. coli NTH-RNase E [2], the IC50 was 1.9 mM and ~1.9 mM; the “Inhibition of catalysis” value is “inhibited RNase E”. For the same molecule, on E. coli NTH-RNase E [2] (setting [5]), the activity at 1900 µM came out at 44%.

As for `Cc1ccc(S(=O)(=O)NC(=O)NCCSCc2c(C)cc(C)cc2C)cc1` [P11], the “SPR binding curve behaviour (specific or non-specific binding)” value at E. coli NTH-RNase E [1] was “consistent with targeting of specific sites; also recorded: specific binding”. The “Inhibition of the activity of RNase G (in words)” value on E. coli RNase G was “able to inhibit the activity of RNase G”. On E. coli NTH-RNase E [2] (setting [5]), the activity at 1800 µM worked out at 62%. In addition, the “Inhibition of catalysis” value at E. coli NTH-RNase E [2] was “clearly inhibited catalysis”. For the same molecule, the “Inhibition of M. tuberculosis RNase E (in words)” value on M. tuberculosis RNase E [3] was “clear inhibition”. The “SPR binding curves, M. tuberculosis RNase E (in words)” value on M. tuberculosis RNase E [4] is on record as “consistent with specific targeting”.
